From patent publication US11912705B2, “Cathinone derivatives, pharmaceutical formulations, and methods” (The Corporation of Mercer University, priority 2020, dated 2024)
Read-outs that look alike come from different tables or passages of the source.

Tests used:
human M3R = target: T1, human M3R (Homo sapiens, UniProt P20309); assay: biochemical; assay type: binding; details: estimate from 1 and 10 μM concentrations (N = 2); N.C. = <5% displacement of radioligand at 10 μM; read-out: estimated pKi at M3R (converted)
T1 construct: host or cells: HEK293 (CRL-1573, ATCC), transient
T1 sequence (P20309 whole entry): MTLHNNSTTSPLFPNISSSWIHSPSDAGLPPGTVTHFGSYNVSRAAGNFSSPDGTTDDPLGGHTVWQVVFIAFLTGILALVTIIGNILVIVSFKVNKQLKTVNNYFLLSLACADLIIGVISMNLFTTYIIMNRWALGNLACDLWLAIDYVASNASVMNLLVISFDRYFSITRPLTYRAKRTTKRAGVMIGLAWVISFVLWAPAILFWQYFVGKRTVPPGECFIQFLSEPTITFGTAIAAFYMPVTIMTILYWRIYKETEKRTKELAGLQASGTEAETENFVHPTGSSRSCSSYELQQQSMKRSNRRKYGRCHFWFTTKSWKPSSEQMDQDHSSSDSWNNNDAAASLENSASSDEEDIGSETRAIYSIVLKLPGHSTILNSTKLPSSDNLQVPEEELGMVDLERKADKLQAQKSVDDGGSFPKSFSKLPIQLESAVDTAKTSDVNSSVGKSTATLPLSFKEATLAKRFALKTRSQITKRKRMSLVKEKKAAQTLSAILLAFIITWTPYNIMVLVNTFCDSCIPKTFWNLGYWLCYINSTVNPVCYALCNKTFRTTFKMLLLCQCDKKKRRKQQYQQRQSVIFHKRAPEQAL
Procedure: (§1) Radioligand Competition Binding: Radioligand competition binding assays were conducted using membranes collected from transiently transfected HEK293 cells (P<20 from a procured stock, CRL-1573, ATCC, Manassas, Va., USA) as previously described (Chen, Y., et al. Drug Test Anal 11, 990-998). Briefly, cells ˜90% confluent in 10 cm plates were transfected with 5 μg human M1R, M2R, M3R, M4R or […] cDNA (cDNA resource center, Bloomsburg, Pa., USA) using a lipid-based method (LipoD293 reagent, SignaGen Laboratories, Rockville, Md., USA). Membranes were collected by centrifugation about 48 hours later and stored at −80° C. until used. […] After a 90-minute incubation at room temperature on a shaker, contents from the plates were rapidly filtered through GF/B fiberglass filter mats, pre-soaked with ice cold 50 mM Tris buffer (pH 7.4), using a Microbeta Filtermat-96 cell harvester (Perkin Elmer, Waltham, Mass., USA). Approximately 200 mL of ice cold, 50 mM Tris buffer was then vacuumed through filter mats to wash away unbound radioligand. Filter mats were dried on a hot plate and soaked in Betaplate (Perkin Elmer, Waltham, Mass., USA) scintillation fluid in plastic bags. Bags were sealed and placed in cassettes. Radioactivity was measured in a Microbeta2 Microplate Counter (Perkin Elmer, Waltham, Mass., USA), and counts per minute corresponding to each well on the plates were recorded. For full dose-response competition binding assays, increasing half-log unit concentrations of five unsubstituted PSCs were tested at M2Rs and M1Rs, with the same procedures described above.
(§2) Curve Fitting and Statistical Analyses: All data were analyzed by GraphPad 8.3.0 (San Diego, Calif., USA). Ki values were determined from data fit to both one- and two-site models. […] EC50 and IC50 values from functional assays were determined from data fit to the log(agonist) vs. response (three parameters) or log(inhibitor) vs. response (three parameters) model, respectively. Kb values were calculated from IC50 values using the Cheng-Prusoff equation with modification (see, e.g., Leff, P., and Dougall, I. G. (1993) Trends Pharmacol Sci 14, 110-112): Kb=IC50/((2+([A]/[A50])nH)1/nH−1)

human M2R [1] = target: T2, human M2R (Homo sapiens, UniProt P08172); assay: [3H]Scopolamine radioligand competition binding at M2R
T2 construct: host or cells: HEK293 (CRL-1573, ATCC), transient
T2 sequence (P08172 1-466): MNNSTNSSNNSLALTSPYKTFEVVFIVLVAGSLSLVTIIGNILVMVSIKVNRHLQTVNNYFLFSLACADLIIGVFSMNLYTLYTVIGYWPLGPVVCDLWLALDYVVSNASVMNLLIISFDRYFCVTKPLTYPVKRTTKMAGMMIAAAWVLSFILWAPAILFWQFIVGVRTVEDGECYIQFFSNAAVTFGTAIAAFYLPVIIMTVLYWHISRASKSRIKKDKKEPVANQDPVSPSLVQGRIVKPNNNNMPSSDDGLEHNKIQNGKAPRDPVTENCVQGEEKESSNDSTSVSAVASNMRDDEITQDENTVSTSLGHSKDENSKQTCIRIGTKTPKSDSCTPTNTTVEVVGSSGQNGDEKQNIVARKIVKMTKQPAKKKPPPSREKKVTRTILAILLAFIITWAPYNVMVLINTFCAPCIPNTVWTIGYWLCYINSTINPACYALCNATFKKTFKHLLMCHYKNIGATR
Procedure: as §1, §2

human M4R = target: T3, human M4R (Homo sapiens, UniProt P08173); assay: [3H]Scopolamine radioligand competition binding at M4R
T3 construct: host or cells: HEK293 (CRL-1573, ATCC), transient
T3 sequence (P08173 1-479): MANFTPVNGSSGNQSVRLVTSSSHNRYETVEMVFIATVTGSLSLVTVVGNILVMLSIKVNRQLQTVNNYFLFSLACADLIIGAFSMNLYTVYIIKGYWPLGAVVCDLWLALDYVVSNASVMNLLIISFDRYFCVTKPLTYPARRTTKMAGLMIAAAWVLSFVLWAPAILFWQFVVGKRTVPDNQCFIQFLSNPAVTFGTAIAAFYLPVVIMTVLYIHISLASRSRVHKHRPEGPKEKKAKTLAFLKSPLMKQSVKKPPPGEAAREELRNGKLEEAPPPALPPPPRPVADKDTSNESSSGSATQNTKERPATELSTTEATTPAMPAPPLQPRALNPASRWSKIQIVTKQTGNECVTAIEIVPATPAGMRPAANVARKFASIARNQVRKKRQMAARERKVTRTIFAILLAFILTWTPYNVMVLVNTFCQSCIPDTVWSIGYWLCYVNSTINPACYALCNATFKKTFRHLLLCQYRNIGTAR
Procedure: as §1, §2

human M5R = target: T4, human M5R (Homo sapiens, UniProt P08912); assay: [3H]Scopolamine radioligand competition binding at M5R
T4 construct: host or cells: HEK293 (CRL-1573, ATCC), transient
T4 sequence (P08912 1-532): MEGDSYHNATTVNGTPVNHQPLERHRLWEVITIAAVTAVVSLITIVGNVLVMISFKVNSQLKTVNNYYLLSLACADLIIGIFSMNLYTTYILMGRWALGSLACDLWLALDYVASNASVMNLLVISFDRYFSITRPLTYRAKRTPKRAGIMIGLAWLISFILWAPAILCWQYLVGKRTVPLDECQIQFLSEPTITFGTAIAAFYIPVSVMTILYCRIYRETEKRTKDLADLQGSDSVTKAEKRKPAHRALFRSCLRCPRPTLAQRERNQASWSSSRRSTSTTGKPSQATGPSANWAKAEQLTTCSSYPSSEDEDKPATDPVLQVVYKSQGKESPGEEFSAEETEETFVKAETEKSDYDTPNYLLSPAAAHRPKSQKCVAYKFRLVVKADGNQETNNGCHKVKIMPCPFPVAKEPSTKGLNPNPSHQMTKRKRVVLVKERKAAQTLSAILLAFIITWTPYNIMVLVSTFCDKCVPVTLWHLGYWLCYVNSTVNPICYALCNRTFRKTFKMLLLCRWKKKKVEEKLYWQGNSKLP
Procedure: as §1, §2

human M1R = target: T5, human M1R (Homo sapiens, UniProt P11229); assay: biochemical; assay type: binding
T5 construct: host or cells: HEK293 (CRL-1573, ATCC), transient
T5 sequence (P11229 1-460): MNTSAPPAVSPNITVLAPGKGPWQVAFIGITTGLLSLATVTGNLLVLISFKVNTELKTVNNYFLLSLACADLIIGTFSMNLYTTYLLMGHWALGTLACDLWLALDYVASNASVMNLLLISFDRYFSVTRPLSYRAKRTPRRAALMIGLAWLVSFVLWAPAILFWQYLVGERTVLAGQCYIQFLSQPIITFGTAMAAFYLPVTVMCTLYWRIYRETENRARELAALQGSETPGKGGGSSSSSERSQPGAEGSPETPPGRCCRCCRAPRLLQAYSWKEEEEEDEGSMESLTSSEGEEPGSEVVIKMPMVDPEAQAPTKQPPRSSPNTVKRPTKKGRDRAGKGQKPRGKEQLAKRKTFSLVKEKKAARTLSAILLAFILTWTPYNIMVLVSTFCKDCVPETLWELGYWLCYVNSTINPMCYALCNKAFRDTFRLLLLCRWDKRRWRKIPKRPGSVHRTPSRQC
Procedure: as §1, §2

[2] = system: mitochondrial activity and cellular membranes; details: reported by Wojcieszak et al.; cited from earlier work
human M2R [3] = target: T2, human M2R; assay: M2R cAMP signaling (forskolin-stimulated cAMP, oxotremorine agonist); assay type: cell-based
Procedure: The M2R coupled to Gαi/o proteins, and its agonism functioned to decrease formation of the intracellular second messenger cyclic-adenosine-monophosphate (cAMP). […] In the presence of oxotremorine, an antagonist of the M2R would be expected to reverse the effects of the agonist, thereby increasing cAMP formation.
M2R cAMP Signaling: cAMP measurements were performed with the cAMP Hunter eXpress® CHRM2 CHO-K1 GPCR assay (Eurofins DiscoveRx, Fremont, Calif., USA) according to the manufacturer's protocol. Briefly, in the provided 96-well tissue culture-treated plate, 100 μL of human M2R expressing CHO-K1 cells were seeded in cell plating reagent and incubated (37° C., 5% CO2, 95% humidity) overnight. Cell plating reagent was replaced with 30 μL of cell assay buffer the next day. For agonist stimulation, cells were treated with increasing half-log unit concentrations of oxotremorine in the presence of 10 μM forskolin, followed by incubation for 30 minutes. A cAMP antibody, cAMP working detection solution and enzyme acceptor solution were then added according to the protocol, and the final chemiluminescent signals were detected by a Mithras LB 940 microplate reader (Berthold Technologies, Bad Wildbad, Germany). Antagonist tests were run by pretreating cells with increasing half-log unit concentrations of α-PHP, followed by incubation for one hour. Cells were then treated with EC80 concentration of oxotremorine (130 nM) and 10 μM forskolin. The same incubation and detection procedure used for agonist assays was used for the remaining steps.
as §2

M2Rs = target: T6, M2Rs (Homo sapiens, UniProt P08172); assay: M2R β-arrestin recruitment; assay type: cell-based
T6 sequence (P08172 1-466): T2 sequence (P08172 1-466)
Excerpt: Data are shown as normalized means (±SEM) of two, independent determinations, with oxotremorine tested at each concentration in duplicate and α-PHP tested in quadruplicate. [*Basal signaling is defined as the normalized RLU emitted by untreated cells.]

human M1Rs = target: T7, human M1Rs (Homo sapiens, UniProt P11229); assay: M1R phosphoinositide hydrolysis (IP-One HTRF); assay type: cell-based
T7 construct: host or cells: HEK293 (CRL-1573, ATCC), transient
T7 sequence (P11229 1-460): T5 sequence (P11229 1-460)

[4] = estimated pKi at M2R, estimate from 1 and 10 μM concentrations (N = 2), N.C. = <5% displacement of radioligand at 10 μM
[5] = estimate from 1 and 10 μM concentrations (N = 2), N.C. = <5% displacement of radioligand at 10 μM, read-out: estimated pKi at M1R (converted)
[6] = full dose-response [3H]Scopolamine competition binding, α-PPP and α-PBP interpolated, read-out: pKi at M1R (converted)
[7] = pKi at M2R, full dose-response [3H]Scopolamine competition binding, α-PPP and α-PBP interpolated

Row | Structure (SMILES) | Ki (human M3R) [µM] | Ki (human M2R [1]; [4]) [µM] | Ki (human M4R) [µM] | Ki (human M5R) [µM] | cytotoxicity (mitochondrial activity, cellular membrane damage) [2] | Ki (human M1R; [6]) [µM] | Ki (human M2R [1]; [7]) [µM] | further results
1 | CCC(C(=O)c1ccc2c(c1)OCO2)N1CCCC1 (stereo not drawn) [MDPBP, 3,4-Methylenedioxy-α-pyrrolidinobutiophenone] | 14.5 | 12.6 | 10.2 | 18.2 |  |  |  | 
2 | CCCCC(C(=O)c1ccc2c(c1)OCO2)N1CCCC1 (stereo not drawn) [MDPHP, 3,4-Methylenedioxy-α-pyrrolidinohexiophenone] | 25.7 | 5.01 | 12.9 | 7.94 |  |  |  | Ki (human M1R; estimate from 1 and 10 μM screens, read-out: estimated Ki at M1Rs): 3.63 µM
3 | CCCCCC(C(=O)c1ccc2c(c1)OCO2)N1CCCC1 (stereo not drawn) [MDPHPP, 3,4-Methylenedioxy-α-pyrrolidinoheptaphenone] | 36.3 | 12 | 33.1 | 5.62 |  |  |  | Ki (human M1R; [5]): 6.03 µM
4 | CCCC(C(=O)c1ccc2c(c1)OCO2)N1CCCC1 (stereo not drawn) [MDPV, 3,4-Methylenedioxypyrovalerone] | 70.8 | 13.8 | 8.91 | 6.31 | this effect was not observed |  |  | Ki (human M1R; [5]): 8.71 µM
5 | CNC(C)C(=O)c1ccccc1 (stereo not drawn) [methcathinone] |  |  |  |  | these toxic effects were not observed |  |  | 
6 | O=C1CCCN1CC#CCN1CCCC1 [oxotremorine, Oxotremorine] |  |  |  |  |  |  |  | pKi High at M1R (human M1R): 7.62±0.36; pKi Low at M1R (human M1R): 5.41±0.04; pKi High at M2R (human M2R [1]; two-site model): 7.92±0.40; pKi Low at M2R (human M2R [1]; two-site model): 6.15±0.10; pEC50, decrease of forskolin-stimulated cAMP production (human M2R [3]; 10 μM forskolin): 7.54±0.12; EC50 (human M2R [3]; 10 μM forskolin, read-out: EC50, decrease of forskolin-stimulated cAMP production): 0.029 µM; EC80, inhibition of cAMP formation (human M2R [3]; forskolin-stimulated): 0.13 µM; pEC50, β-arrestin recruitment (M2Rs): 5.71±0.11; EC80, IP1 production (human M1Rs): 0.5 µM; pEC, IP1 production (human M1Rs): 7.21±0.20
7 | CCC(C(=O)c1ccccc1)N1CCCC1 (stereo not drawn) [α-PBP, α-Pyrrolidinobutiophenone] |  |  |  |  |  | 75.9 | 39.8 | 
8 | CCCCCC(C(=O)c1ccccc1)N1CCCC1 (stereo not drawn) [α-PHPP, α-Pyrrolidinoheptaphenone] | 1.12 |  | 1.38 | 1.15 |  | 1.95 | 0.661 | 
9 | CC(C(=O)c1ccccc1)N1CCCC1 (stereo not drawn) [α-PPP, α-Pyrrolidinopropiophenone] |  |  |  |  |  | 195 | 75.9 | Ki (human M2R [1]; Ki at M2Rs, full dose-response, interpolated): 73 µM
10 | CCCCCCC(C(=O)c1ccccc1)N1CCCC1 (stereo not drawn) [α-PV9, α-Pyrrolidinooctanophenone] |  |  |  |  | potently decreased mitochondrial activity, and severely damaged cellular membranes |  |  | 
